From US5849753A, “Pyridyl imidazole derivatives and processes for the preparation thereof” (Korea Research Institute of Chemical Technology, priority 1994, dated 1998)

How the values were obtained:
[1] = Metabolite analysis (enzyme digestion test); format: in vitro ADME, male rats; settings: rat liver microsome and NADPH, 1 hour, 37° C., HPLC
Experimental: Enzyme digestion test was executed in order to detect the metabolite of the test compound in vivo.
A liver microsome and NADPH system of male rats were added to each of the present compound(Example 8) and the control compound(Merck), and the mixture was incubated for 1 hour at 37° C. The resultant was extracted with methanol or dichloromethane, and, thereafter, the organic layer was evaporated to obtain a residue. The residue was analyzed using high pressure liquid chromatography.

unanesthetized dogs = experiment: Blood pressure lowering effect in unanesthetized dogs (furosemide treated); format: in vivo, dog; set-up: Maximum blood pressure lowering effect in a dog: unit not given here; settings: dog, oral
Experimental: A number of dogs were fed freely in a feeding room and those weighing 7 to 12 kg in good health were selected regardless of their gender.
(§1) The test dogs were anesthetized with 30 mg/kg of pentobarbital sodium by intravenous injection and the left femoral artery and femoral vein were separated carefully. Silicone catheter, specially prepared and filled with saline treated with heparin(1,000 IU/ml), was cannulated into the blood vessels. After the surgery, the dogs were constrained to measure their blood pressure continuously with Gould 2000 physiograph adapted to a Grass P23 XL pressure transducer; and their heart rates were monitored with ECG/Biotacho amplifier. The dogs were tested at least 2 days after the surgery.
10 mg/kg of furosemide was injected intramuscularly 18 hours(in case of intravenous injection, 2 hours) before the beginning of the test (administration of the test compound) to improve the activity of renin in blood plasma. After the injection of furosemide, neither food nor water was provided. The test compound was suspended in Tween 80 and administered in an amount of 20 mg/kg orally. The blood pressure and heart rate were measured up to 8 hours after the administration of each test compound.
The maximum blood pressure lowering effect of the present compounds and the control compounds were determined in different amounts of administration using the same method as […]

renal hypertensive rat = experiment: Blood pressure lowering effect on oral administration to rats at several doses; format: in vivo, male Sprague-Dawley rats; settings: 3 mg/kg
Text: (§2) To induce renal hypertension, left renal artery of 4 week-old male Sprague-Dawley rats(from The Korea Research Institute of Chemical Technology) was ligated. The rats were anesthetized with ether and the surgical region on the left abdomen of the rat was shaved, disinfected, and then incised about 1 cm vertically. The renal artery near abdominal aorta was isolated carefully from surrounding tissues and veins, and then ligated completely with a suture(4/0 sterile surgical silk). The muscular strata and skin of the surgical area were sutured with a suture(4/0 sterile surgical silk). The surgical region was disinfected to prevent infection and thereafter, 200 to 250 mg/Kg/day of cephazolin sodium was injected intramuscularly for 2 days. 6 to 8 days after the ligation, rats showing systolic pressure of more than 180 mmHg were selected for renal hypertension test. The blood pressure was determined by a tail-cuff method from the tail under unanesthetized condition(Gerold, M. et al., Arzneimittrel-Forsch, 18, 1285(1968)).
(§3) Each of the compounds to be tested was administered intravenously or orally into the renal hypertensive rat. The blood pressure of the rats was determined by direct method(Chiu, A. T. et al., J. Pharmacol. Exp. Ther. 250, 867(1989)) using a catheter. The rats were anesthetized with ketamine hydrochloride(125 mg/kg, i.p.) and a catheter was filled with saline and inserted into a carotid artery and carotid vein. The surgical area was sutured with a metal clip. The rats were relaxed at least 3 hours and the catheter in the carotid artery was adapted to an isotec pressure transducer to determine their blood pressure and heart rate with a physiograph(Linearcorder WR3310). After the blood pressure was stabilized, the test compound was administered intravenously or orally. For intravenous administration, the administered volume and washing volume were 1.0 ml/Kg and 0.2 ml, respectively. The blood pressure and heart rate were measured in regular intervals up to 24 hours after the administration of the test compound and compared with those measured after the administration of the control compound Losartan.
The test compound was dissolved in 0.05N KOH for intravenous administration and suspended in Tween 80 for oral administration.
(iii) Blood pressure lowering effect The present compounds, Losartan(Dup 753) and the Merck compound were administrated orally to rats in 10, 3, 1, 0.3 and 0.1 mg/kg under the same condition as in (ii) and the blood pressure lowering effect was determined.

[2] = system: furosemide-administered dogs; experiment: Duration of action in furosemide-administered dogs; format: in vivo, dog; settings: 0.33 mg, per os
Experimental: as §1
10 mg/kg of furosemide was injected intramuscularly 18 hours(in case of intravenous injection, 2 hours) before the beginning of the test (administration of the test compound) to improve the activity of renin in blood plasma. After the injection of furosemide, neither food nor water was provided. […] The blood pressure and heart rate were measured up to 8 hours after the administration of each test compound.
The compound of Example 8 and the Merck compound were administered orally to the furosemide-administrated dogs as in test 3(i), and blood pressure lowering effect was measured with time.

renal hypertensive rats = experiment: Duration of action in renal hypertensive rats; format: in vivo, male Sprague-Dawley rats; settings: 3 mg/kg, oral
Text: as §2, §3
The present(Example 28) and control(Merck) compounds were tested using the hypertensive rats of test 2(i). 1 mg or 3 mg/kg of each compound was administered orally and blood pressure lowering effect with time was determined to measure the duration of action of the compounds.

## CCc1nc2c(C)cc(C)nc2n1Cc1ccc(-c2ccccc2-c2nnn[nH]2)cc1 [Merck compound, reference compound]
[1]
  metabolite from the enzymatic digestion: has a metabolite
Unanesthetized dogs; 0.1 mg/kg
  Maximum blood pressure lowering effect in a dog: 20
Unanesthetized dogs; 0.3 mg/kg
  Maximum blood pressure lowering effect in a dog: 24
Renal hypertensive rat
  blood pressure lowering effect: 40%
[2]; 0 min
  blood pressure lowering effect with time: 0.0%
[2]; 10 min
  blood pressure lowering effect with time: -5.0%
[2]; 20 min
  blood pressure lowering effect with time: -12.2%
[2]; 30 min
  blood pressure lowering effect with time: -14.4%
[2]; 60 min
  blood pressure lowering effect with time: -20.1%
[2]; 90 min
  blood pressure lowering effect with time: -24.4%
[2]; 120 min
  blood pressure lowering effect with time: -19.1%
[2]; 150 min
  blood pressure lowering effect with time: -24.2%
[2]; 180 min
  blood pressure lowering effect with time: -18.9%
[2]; 210 min
  blood pressure lowering effect with time: -17.0%
[2]; 240 min
  blood pressure lowering effect with time: -17.0%
[2]; 270 min
  blood pressure lowering effect with time: -13.4%
[2]; 300 min
  blood pressure lowering effect with time: -14.9%
[2]; 330 min
  blood pressure lowering effect with time: -15.6%
[2]; 360 min
  blood pressure lowering effect with time: -15.6%
[2]; 390 min
  blood pressure lowering effect with time: -11.4%
[2]; 420 min
  blood pressure lowering effect with time: -10.7%
[2]; 450 min
  blood pressure lowering effect with time: -11.4%
[2]; 480 min
  blood pressure lowering effect with time: -13.8%
Renal hypertensive rats; 0 min
  blood pressure lowering effect with time: 0%
Renal hypertensive rats; 10 min
  blood pressure lowering effect with time: -15%
Renal hypertensive rats; 20 min
  blood pressure lowering effect with time: -27%
Renal hypertensive rats; 30 min
  blood pressure lowering effect with time: -28%
Renal hypertensive rats; 60 min
  blood pressure lowering effect with time: -26%
Renal hypertensive rats; 90 min
  blood pressure lowering effect with time: -28%
Renal hypertensive rats; 120 min
  blood pressure lowering effect with time: -25%
Renal hypertensive rats; 240 min
  blood pressure lowering effect with time: -40%
Renal hypertensive rats; 360 min
  blood pressure lowering effect with time: -36%
Renal hypertensive rats; 1320 min
  blood pressure lowering effect with time: -35%
Renal hypertensive rats; 1440 min
  blood pressure lowering effect with time: -40%
Renal hypertensive rats; time in minutes not given
  blood pressure lowered: -40%
